Assay results taken from publication PMC4441817 (Bioorganic & medicinal chemistry letters, 2012).

Legend:
[1] = target: T1, geranylgeranyl transferase II (GGTase II) (Homo sapiens, UniProt P53611+Q92696); type: biochemical; conditions: recombinant enzyme
T1 sequence (Q92696 1-567): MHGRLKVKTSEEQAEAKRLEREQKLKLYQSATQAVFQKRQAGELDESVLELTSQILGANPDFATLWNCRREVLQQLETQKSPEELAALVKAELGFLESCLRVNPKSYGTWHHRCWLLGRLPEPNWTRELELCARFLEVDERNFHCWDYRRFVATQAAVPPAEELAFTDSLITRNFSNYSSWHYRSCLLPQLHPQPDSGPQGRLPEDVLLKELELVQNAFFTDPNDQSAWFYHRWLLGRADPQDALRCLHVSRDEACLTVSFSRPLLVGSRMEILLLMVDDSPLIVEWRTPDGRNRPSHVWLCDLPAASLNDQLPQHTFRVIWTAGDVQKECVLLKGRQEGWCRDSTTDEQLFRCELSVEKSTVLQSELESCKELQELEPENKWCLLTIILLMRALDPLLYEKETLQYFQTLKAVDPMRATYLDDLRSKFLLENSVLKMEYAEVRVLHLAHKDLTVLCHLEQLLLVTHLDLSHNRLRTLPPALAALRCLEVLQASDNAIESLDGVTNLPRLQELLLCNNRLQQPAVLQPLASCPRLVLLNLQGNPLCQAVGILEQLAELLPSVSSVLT
T1 sequence (P53611 1-331): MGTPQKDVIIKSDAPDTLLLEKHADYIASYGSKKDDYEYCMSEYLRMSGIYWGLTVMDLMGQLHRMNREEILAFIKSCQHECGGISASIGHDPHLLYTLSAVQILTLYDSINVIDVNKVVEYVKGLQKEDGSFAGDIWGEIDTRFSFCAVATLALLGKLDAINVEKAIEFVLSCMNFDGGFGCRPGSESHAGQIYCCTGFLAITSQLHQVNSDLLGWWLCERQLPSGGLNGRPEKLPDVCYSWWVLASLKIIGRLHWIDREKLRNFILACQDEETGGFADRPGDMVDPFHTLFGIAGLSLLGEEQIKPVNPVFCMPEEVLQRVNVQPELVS

[2] = test system: human myeloma RPMI-8226 cell line; assay: cells; conditions: RPMI-8226, 48 h, read-out: MTT IC50
[3] = test system: human myeloma RPMI-8226 cell line; conditions: RPMI-8226 cells, 48 hr incubation
[4] = test system: protein farnesylation or geranylgeranylation; assay: Cellular assays of protein farnesylation or geranylgeranylation; type: cell-based; conditions: data not shown
GGTase II = conditions: cited from earlier work
[5] = cited from earlier work

| SMILES | activity as a GGTase II inhibitor (in words) [1] | IC50 [2] [µM] | other results |
| --- | --- | --- | --- |
| CC(C)=CCC/C(C)=C/CC/C(C)=C/CCC(C)=CCn1cc(CC(P(=O)([O-])[O-])P(=O)([O-])[O-])nn1.[Na+].[Na+].[Na+].[Na+] [Compound 11e] | most active compound | 1000 |  |
| O=P([O-])([O-])C(Cc1cn(Cc2ccc3ccccc3c2)nn1)P(=O)([O-])[O-].[Na+].[Na+].[Na+].[Na+] [Compound 11b] |  | 200 | cytotoxic potency in the MTT assay (in words) [3]: most potent; effect on protein farnesylation or geranylgeranylation [4]: does not affect protein farnesylation or geranylgeranylation |
| O=P(O)(O)C(Cc1cn(Cc2ccccc2)nn1)P(=O)(O)O [Compound 11a] |  | > 1000 |  |
| CC(C)=CCCC(C)=CCn1cc(CC(P(=O)([O-])[O-])P(=O)([O-])[O-])nn1.[Na+].[Na+].[Na+].[Na+] [Compound 11c] | no activity | > 1000 |  |
| O=C(O)C(O)(Cc1cnc2ccccn12)P(=O)(O)O (single isomer, unassigned; (+)) [(+)-3-IPEHPC] |  |  | potency relative to 3-PEHPC (GGTase II): more potent than 3-PEHPC; type of inhibition with respect to GGPP (GGTase II): mixed-type inhibitor; type of inhibition with respect to Rab (GGTase II): uncompetitive inhibitor |
| O=C(O)C(O)(Cc1cccnc1)P(=O)(O)O (stereo not drawn) [Compound 3-PEHPC] |  |  | selectivity for GGTase II (in words) (GGTase II): good selectivity for GGTase II; concentrations required to observe cellular effects [5]: millimolar concentrations are required |
| CC(C)=CCC/C(C)=C/CCC(C)=CCn1cc(CC(P(=O)([O-])[O-])P(=O)([O-])[O-])nn1.[Na+].[Na+].[Na+].[Na+] [Compound 11d] | modest activity | 900 |  |
